{"source": "ChEMBL document CHEMBL5465560", "about": "“Selectivity Literature for EUbOPEN Chemogenomic Library” (2024)", "key": {"[1]": {"target": "Cyclin-dependent kinase 20 (Homo sapiens) (UniProt Q8IZL9)", "sequence (Q8IZL9 whole entry)": "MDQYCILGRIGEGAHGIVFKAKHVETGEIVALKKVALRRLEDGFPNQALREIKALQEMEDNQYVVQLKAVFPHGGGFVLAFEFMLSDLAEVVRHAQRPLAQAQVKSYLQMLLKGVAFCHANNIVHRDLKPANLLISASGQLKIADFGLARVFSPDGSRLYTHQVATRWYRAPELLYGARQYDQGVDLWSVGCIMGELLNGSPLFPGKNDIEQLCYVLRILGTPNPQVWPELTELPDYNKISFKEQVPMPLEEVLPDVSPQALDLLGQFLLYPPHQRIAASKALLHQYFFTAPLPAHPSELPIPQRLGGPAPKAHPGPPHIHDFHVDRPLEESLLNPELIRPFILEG", "assay": "Selectivity interaction (Kinase panel (KiNativ target engagement assay in Jurkat cells)) EUB0001635a CDK20", "assay_type": "cell-based", "details": "Selectivity number of off-targets 0.0, Selectivity number of targets 233.0, Source Knowledge https://www.sciencedirect.com/science/article/pii/S2451945619300674?via%3Dihub, at 1 µM"}, "[2]": {"target": "T1, Mitogen-activated protein kinase kinase kinase kinase 2 (Homo sapiens) (UniProt Q12851)", "T1 sequence (whole entry)": "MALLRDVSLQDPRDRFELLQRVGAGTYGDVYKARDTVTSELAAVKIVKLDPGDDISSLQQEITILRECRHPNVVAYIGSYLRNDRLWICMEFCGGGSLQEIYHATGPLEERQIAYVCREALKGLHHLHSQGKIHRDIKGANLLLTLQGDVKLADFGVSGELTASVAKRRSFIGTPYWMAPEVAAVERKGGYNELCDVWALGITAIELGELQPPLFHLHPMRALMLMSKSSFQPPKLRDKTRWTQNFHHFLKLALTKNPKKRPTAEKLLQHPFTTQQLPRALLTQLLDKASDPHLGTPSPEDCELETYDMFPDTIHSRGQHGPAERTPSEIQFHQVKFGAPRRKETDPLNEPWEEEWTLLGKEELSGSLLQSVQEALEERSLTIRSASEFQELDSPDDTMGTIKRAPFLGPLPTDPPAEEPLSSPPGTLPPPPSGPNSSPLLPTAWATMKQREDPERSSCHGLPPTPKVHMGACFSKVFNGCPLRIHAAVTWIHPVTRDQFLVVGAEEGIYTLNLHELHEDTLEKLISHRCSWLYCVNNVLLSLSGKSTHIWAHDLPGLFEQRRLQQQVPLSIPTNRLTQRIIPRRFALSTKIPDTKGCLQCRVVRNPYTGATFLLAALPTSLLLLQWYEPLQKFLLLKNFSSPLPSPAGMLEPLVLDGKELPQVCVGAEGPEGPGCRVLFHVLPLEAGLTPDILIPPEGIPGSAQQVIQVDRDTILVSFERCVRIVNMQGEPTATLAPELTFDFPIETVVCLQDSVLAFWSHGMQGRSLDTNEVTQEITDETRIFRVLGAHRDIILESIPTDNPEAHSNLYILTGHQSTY", "assay": "Selectivity interaction (KinomeScan (DiscoverX)) EUB0000045b MAP4K2"}, "[3]": {"target": "Serine/threonine-protein kinase Nek7 (Homo sapiens) (UniProt Q8TDX7)", "sequence (Q8TDX7 whole entry, looked up)": "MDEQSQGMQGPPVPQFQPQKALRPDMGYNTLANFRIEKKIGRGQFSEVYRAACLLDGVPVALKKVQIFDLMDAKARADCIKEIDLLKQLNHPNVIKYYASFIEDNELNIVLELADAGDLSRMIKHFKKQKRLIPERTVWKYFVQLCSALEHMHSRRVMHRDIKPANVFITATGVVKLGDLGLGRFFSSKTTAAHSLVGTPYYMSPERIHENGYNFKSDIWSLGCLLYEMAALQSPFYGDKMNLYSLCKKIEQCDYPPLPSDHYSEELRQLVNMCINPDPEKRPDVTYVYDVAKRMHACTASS", "assay": "Selectivity interaction (KinomeScan (DiscoverX)) EUB0000695a NEK7", "details": "at 100 nM"}, "Histamine H1 receptor": {"target": "Histamine H1 receptor (Homo sapiens, UniProt P35367)", "sequence (P35367 whole entry)": "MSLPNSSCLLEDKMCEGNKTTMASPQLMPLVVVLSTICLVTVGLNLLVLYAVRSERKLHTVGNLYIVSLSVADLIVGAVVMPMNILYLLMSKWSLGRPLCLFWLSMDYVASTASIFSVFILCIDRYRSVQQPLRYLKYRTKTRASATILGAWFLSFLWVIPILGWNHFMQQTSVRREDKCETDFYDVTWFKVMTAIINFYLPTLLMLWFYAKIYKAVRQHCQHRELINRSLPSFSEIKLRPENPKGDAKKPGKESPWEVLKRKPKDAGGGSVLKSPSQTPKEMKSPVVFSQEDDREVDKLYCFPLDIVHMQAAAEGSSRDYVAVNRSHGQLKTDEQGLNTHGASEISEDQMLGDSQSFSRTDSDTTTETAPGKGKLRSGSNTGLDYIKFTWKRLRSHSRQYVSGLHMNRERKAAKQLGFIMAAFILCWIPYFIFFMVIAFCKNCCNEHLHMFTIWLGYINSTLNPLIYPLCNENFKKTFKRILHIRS", "assay": "Selectivity interaction (GPCR panel (PDSP screen)) EUB0001079a HRH1", "details": "at 10 µM"}, "[4]": {"target": "Non-receptor tyrosine-protein kinase TYK2 (Homo sapiens, UniProt P29597)", "sequence (P29597 whole entry)": "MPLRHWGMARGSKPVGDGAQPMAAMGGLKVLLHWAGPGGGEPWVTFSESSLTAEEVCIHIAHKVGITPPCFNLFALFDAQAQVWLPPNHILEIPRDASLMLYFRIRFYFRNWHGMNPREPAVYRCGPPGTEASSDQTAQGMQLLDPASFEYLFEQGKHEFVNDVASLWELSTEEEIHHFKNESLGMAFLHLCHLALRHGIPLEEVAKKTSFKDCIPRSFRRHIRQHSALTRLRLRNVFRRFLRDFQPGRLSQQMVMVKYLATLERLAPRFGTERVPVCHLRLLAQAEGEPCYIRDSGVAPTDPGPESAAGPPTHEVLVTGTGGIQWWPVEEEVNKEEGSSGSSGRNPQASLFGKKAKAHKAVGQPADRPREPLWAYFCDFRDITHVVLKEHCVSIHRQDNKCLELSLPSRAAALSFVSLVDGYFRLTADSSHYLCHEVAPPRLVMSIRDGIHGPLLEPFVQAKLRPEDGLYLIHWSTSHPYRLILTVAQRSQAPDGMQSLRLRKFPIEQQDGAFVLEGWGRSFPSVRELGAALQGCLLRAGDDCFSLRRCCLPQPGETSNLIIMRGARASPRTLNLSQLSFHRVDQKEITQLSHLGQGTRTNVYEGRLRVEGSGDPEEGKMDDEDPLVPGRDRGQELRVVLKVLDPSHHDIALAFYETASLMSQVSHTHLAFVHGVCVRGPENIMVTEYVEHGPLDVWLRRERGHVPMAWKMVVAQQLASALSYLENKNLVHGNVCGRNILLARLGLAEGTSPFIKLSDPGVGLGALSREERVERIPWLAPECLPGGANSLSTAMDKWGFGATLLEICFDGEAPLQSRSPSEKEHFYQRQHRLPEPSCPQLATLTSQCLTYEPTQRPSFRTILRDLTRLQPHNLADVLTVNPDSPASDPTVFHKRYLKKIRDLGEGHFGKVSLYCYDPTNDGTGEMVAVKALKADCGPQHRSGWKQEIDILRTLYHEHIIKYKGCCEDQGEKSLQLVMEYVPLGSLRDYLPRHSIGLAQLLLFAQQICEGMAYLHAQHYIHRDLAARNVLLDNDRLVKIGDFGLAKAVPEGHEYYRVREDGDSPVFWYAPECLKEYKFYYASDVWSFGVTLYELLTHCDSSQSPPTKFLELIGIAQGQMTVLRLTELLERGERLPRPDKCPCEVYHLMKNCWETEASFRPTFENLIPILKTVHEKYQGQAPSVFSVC", "assay": "Selectivity interaction (ProQinase) EUB0000171b TYK2"}, "[5]": {"target": "Acetylcholine receptor subunit alpha (Homo sapiens, UniProt P02708)", "sequence (P02708 whole entry)": "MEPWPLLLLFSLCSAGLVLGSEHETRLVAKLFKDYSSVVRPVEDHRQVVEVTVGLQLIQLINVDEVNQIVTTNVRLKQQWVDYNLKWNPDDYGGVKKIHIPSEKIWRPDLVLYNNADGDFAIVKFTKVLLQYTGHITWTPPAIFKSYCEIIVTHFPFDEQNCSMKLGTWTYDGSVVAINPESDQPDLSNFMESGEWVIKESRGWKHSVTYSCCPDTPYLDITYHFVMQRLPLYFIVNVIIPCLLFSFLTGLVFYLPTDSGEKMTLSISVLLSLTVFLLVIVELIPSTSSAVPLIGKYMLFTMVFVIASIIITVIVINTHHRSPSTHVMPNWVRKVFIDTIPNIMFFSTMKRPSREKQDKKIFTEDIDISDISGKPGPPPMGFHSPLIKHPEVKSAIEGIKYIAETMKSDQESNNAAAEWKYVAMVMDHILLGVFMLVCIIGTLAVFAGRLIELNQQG", "assay": "Selectivity interaction (Panel of kinases, GPCRs, ion channels and transporters (enzymatic assay)) EUB0000223bCl CHRNA1"}, "[6]": {"target": "Calcium/calmodulin-dependent protein kinase kinase 2 (Homo sapiens) (UniProt Q96RR4)", "sequence (Q96RR4 2-588 limits assumed)": "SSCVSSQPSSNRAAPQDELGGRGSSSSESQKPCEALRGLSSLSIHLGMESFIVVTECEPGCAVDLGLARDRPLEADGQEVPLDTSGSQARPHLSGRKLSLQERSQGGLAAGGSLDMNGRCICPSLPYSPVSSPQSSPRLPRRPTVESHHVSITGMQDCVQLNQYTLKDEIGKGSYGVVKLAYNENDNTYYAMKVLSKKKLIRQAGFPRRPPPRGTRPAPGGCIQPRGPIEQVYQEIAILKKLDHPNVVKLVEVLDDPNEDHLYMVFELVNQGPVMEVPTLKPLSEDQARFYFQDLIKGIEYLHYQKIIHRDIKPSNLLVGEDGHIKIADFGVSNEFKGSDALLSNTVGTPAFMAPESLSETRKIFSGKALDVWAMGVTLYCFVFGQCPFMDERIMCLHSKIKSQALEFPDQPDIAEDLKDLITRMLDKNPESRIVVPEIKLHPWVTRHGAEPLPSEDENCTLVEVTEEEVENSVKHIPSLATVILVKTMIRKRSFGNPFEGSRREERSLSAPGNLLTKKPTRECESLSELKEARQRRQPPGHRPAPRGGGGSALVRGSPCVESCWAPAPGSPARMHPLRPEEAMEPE", "assay": "Selectivity interaction (Kinase panel (DSF assay)) EUB0001558a CAMKK2"}, "[7]": {"target": "Maternal embryonic leucine zipper kinase (Homo sapiens) (UniProt Q14680)", "sequence (Q14680 whole entry, looked up)": "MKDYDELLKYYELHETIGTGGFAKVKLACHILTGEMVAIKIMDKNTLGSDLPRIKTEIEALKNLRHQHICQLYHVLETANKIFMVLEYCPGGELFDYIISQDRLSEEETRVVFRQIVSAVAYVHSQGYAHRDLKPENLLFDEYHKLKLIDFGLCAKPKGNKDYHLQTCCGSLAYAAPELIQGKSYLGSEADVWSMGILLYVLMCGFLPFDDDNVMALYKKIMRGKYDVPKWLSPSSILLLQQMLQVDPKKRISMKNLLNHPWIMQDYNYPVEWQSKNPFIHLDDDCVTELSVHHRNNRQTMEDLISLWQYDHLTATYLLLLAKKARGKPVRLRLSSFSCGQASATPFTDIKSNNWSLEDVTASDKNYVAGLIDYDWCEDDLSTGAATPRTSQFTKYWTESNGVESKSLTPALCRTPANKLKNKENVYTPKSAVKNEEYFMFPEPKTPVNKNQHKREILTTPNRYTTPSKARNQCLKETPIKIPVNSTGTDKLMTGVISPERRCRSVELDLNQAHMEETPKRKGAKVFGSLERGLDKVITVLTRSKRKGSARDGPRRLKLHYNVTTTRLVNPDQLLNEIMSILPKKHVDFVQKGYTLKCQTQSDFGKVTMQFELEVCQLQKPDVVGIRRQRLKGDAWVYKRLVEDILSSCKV", "assay": "Selectivity interaction (Kinase panel (DSF assay)) EUB0001558a MELK"}, "[8]": {"target": "Ribosomal protein S6 kinase alpha-2 (Homo sapiens) (UniProt Q15349)", "assay": "Selectivity interaction (KinomeScan (DiscoverX)) EUB0000618a RPS6KA2", "details": "at 10 µM"}, "[9]": {"target": "Serine/threonine-protein kinase MARK2 (Homo sapiens) (UniProt Q7KZI7)", "sequence (Q7KZI7 whole entry)": "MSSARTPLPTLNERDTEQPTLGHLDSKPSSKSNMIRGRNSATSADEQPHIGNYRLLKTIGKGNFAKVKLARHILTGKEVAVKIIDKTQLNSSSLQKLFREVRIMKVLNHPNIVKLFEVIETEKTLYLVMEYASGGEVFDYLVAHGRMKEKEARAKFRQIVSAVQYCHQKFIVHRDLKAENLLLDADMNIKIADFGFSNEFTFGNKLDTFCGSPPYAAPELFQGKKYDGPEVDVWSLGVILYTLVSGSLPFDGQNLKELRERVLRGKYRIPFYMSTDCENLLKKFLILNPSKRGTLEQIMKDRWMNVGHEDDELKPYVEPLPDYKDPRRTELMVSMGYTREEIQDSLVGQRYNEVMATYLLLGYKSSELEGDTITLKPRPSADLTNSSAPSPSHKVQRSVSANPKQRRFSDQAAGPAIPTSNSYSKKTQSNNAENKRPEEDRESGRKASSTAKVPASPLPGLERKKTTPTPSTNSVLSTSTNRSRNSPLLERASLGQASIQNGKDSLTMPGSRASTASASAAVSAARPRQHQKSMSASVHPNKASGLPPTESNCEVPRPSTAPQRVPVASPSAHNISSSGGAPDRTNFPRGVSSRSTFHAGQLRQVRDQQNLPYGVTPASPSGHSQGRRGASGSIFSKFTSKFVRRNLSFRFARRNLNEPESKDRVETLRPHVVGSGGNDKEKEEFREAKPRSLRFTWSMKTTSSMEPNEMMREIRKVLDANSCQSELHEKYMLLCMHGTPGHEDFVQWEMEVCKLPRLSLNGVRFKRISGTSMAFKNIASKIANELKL", "assay": "Selectivity interaction (ActivX KiNativ screen (kinase selectivity in THP-1 cell lysates)) EUB0000639a MARK2", "assay_type": "subcellular", "details": "lysate, at 0.2 µM"}, "[10]": {"target": "T2, TGF-beta receptor type-1 (Homo sapiens) (UniProt P36897)", "T2 sequence (whole entry)": "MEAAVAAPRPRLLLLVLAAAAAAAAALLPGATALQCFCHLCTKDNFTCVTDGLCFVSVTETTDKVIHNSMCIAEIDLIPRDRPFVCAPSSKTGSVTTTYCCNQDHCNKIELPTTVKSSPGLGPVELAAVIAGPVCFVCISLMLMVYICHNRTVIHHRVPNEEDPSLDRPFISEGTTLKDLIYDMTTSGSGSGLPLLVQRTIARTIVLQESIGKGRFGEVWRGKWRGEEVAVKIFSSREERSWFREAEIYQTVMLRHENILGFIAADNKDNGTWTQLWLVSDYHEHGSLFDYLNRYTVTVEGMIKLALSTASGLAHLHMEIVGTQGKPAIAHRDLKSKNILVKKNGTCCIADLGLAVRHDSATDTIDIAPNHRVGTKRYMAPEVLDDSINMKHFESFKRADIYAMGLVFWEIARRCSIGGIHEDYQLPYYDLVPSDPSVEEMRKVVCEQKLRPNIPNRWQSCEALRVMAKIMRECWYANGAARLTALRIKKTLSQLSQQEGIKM", "assay": "Selectivity interaction (Kinase panel (Invitrogen)) EUB0000639a TGFBR1", "details": "at 200 nM"}}, "data": [{"compound": "C=CC(=O)Nc1ccc(C(=O)Nc2[nH]nc3c2CN(C(=O)N[C@H](CN(C)C)c2ccccc2)C3(C)C)cc1", "values": [{"measurement": "% of engagement", "setting": "[1]", "result": 4.7, "unit": "%"}]}, {"compound": "C=CC(=O)Nc1cc(-n2c(=O)ccc3cnc4ccc(-c5ccc(NS(C)(=O)=O)cc5)cc4c32)ccc1C", "values": [{"measurement": "% of control", "setting": "[2]; at 1 µM", "result": 100, "unit": "%"}, {"measurement": "% of control", "setting": "[2]; at 10 µM", "result": 89, "unit": "%"}]}, {"compound": "Cc1cc(F)c(C(=O)Nc2cccc(-c3nncn3C(C)C)n2)cc1-n1cnc(C2CC2)c1", "values": [{"measurement": "% of control", "setting": "[3]", "result": 100, "unit": "%"}]}, {"compound": "Nc1cnc(N2CCc3cc(S(=O)(=O)Nc4c(F)cc(Cl)cc4F)cc(N4CCCC4=O)c32)nc1", "note": "[TP-020n]", "values": [{"measurement": "% of inhibition", "setting": "Histamine H1 receptor", "result": 8.19, "unit": "%"}]}, {"compound": "C=CC(=O)Nc1cccc(C(=O)Nc2ccc(Nc3cc(-c4[nH]c(SC)nc4C)ccn3)cc2)c1", "values": [{"measurement": "% of control", "setting": "[4]; at 1 µM", "result": 77, "unit": "%"}, {"measurement": "% of control", "setting": "[4]; at 5 µM", "result": 46, "unit": "%"}]}, {"compound": "COc1cc(C(=O)N2CC[C@@H](O)[C@@H](N)C2)cc2nc(-c3cc4ccccc4n3CC3CC3)n(C)c12", "values": [{"measurement": "pXC50", "setting": "[5]", "result": "< 4.3", "unit": "M"}]}, {"compound": "CC(C)(O)[C@H](F)CN1Cc2cc(NC(=O)c3cnn4cccnc34)c(N3CCOCC3)cc2C1=O", "values": [{"measurement": "dTM", "setting": "[6]", "result": 4.3, "unit": "K"}, {"measurement": "dTM", "setting": "[7]", "result": 0.9, "unit": "K"}]}, {"compound": "O[C@H]1CC[C@H](Nc2ncc3nc(Nc4c(F)cc(F)cc4F)n([C@H]4CCOC4)c3n2)CC1", "values": [{"measurement": "% of control", "setting": "[8]", "result": 78, "unit": "%"}]}, {"compound": "CC[C@@H]1[C@H](F)C(=O)N[C@@H]1COc1nccc2cc(C(N)=O)c(OC)cc12", "note": "[ZIMLOVISERTIB]", "values": [{"measurement": "% of inhibition", "setting": "[9]", "result": 2.7, "unit": "%"}, {"measurement": "% of inhibition", "setting": "[10]", "result": 27.1, "unit": "%"}]}]}
